From US5496843A, “Tricyclic indole-2-carboxylic acid derivatives” (Sumitomo Pharmaceuticals Company, Limited, priority 1993, dated 1996) come the findings set out here.

Test [1] deals with strychnine-insensitive glycine modulatory site of NMDA (N-methyl D-aspartate) receptors. The experiment in a line: [3H] DCKA binding studies. The conditions noted are these: 10 ng/mL test compound; 10 nM [3H] DCKA; rat brain synaptic membrane preparation. The protocol:
(§1) The activities of the compounds were measured by [^3 H] DCKA and [^3 H] glycine binding inhibition studies as illustrated below. [^3 H] glycine binding studies
[^3 H] DCKA binding studies
A crude rat brain synaptic membrane preparation was washed three times by centrifugation at 50,000×g for 30 min with 50 mM tris acetate (pH 7.4). The pellets obtained were suspended in 0.23M sucrose solution and stored at -80° C. For binding studies, the frozen suspension was thawed, treated with 0.08% triton X-100 at 2° C. for 10 min, and washed twice by the centrifugation as mentioned above. The synaptic membrane thus prepared (ca. 100 μg of protein) was incubated with 10 nM [^3 H] (DCKA) (603 GBq/mmol) and the test compound (10 ng/mL~0.1ng/mL) at 2° C. for 10 min in 50 mM tris acetate (pH 7.4). The incubation was terminated by suction filtration using Whatman GF/B glass filter. The radioactivity bound to the membrane on the filter was measured by scintillation counting. Non-specific binding was calculated by the radioactivity measured under the incubations in the presence of 0.1 mM glycine. […] DCKA binding.

For test [2] the test system is unchanged. Briefly: [3H] glycine binding studies. The conditions noted are these: 10 ng/mL test compound; 10 nM [3H] glycine; rat brain synaptic membrane preparation. The method, then:
as §1
A crude rat brain synaptic membrane preparation was washed three times by centrifugation at 50,000×g for 30 min with 50 mM tris acetate (pH 7.4). The pellets obtained were suspended in 0.23M sucrose solution and stored at -80° C. For binding studies, the frozen suspension was thawed, treated with 0.08% triton X-100 at 2° C. for 10 min, and washed twice by the centrifugation as mentioned above. The synaptic membrane thus prepared (ca. 150~200 μg of protein) was incubated with 10 nM [^3 H] glycine (1.11 TBq/mmol) and the test compound (10 ng/mL~0.1 ng/mL) at 2° C. for 10 min in 50 mM tris acetate (pH 7.4). The incubation was terminated by suction filtration using Whatman GF/B glass filter. The radioactivity bound to the membrane on the filter was measured by scintillation counting. Non-specific binding was calculated by the radioactivity measured under the incubations in the presence of 0.1 mM D-serine. The [3H] glycine binding was not inhibited by addition of 0.1 mM strychnine.

In test [3] the test system is NMDA-induced tonic seizures. Briefly: NMDA-induced seizure model. It is filed as in vivo. Conditions: 30 mg/kg, i.p., 30 min before NMDA (5 nmol) i.c.v.; mice. The method, then:
The compounds of the present invention attenuated strongly NMDA-induced seizure under systemic administration in the following in vivo model. NMDA-induced seizure model Thirty min later following intraperitoneal administration of the test compound (0.3~30 mg/kg) into each of ten mice tested, NMDA (5 nmol) was administered intracerebroventricularly (i.c.v.).

As to `Cl.NCc1ccc(NC(=O)CC2CCc3cc(Cl)cc4[nH]c(C(=O)O)c2c34)c(CC(=O)O)c1` (stereo not drawn) [Example 5, 7-Chloro-3-[p-aminomethyl-o-(carboxymethyl)phenylcarbamoylmethyl]-1,3,4,5-tetrahydrobenz[cd]indole-2-carboxylic acid hydrochloride], the “inhibition of the [3H] DCKA binding” value in test [1] was determined as 94%. Also, in test [2], the “inhibition of the [3H] glycine binding” value worked out at 69%. Besides, in test [3], the “protection from tonic seizures” value turned out to be 90%.
